The text below walks through data of the kinase profiling compilation of Christmann-Franck et al. (2016).

Molecules are shown by their SMILES.

One may read the IC50 as the point on the concentration scale where inhibition reaches its midpoint. A high value points to weaker potency.

Targets include CSNK1E (human) (UniProt P49674); CSNK1G2 (human) (UniProt P78368); DDR1 (human) (UniProt Q08345); KIT (human) (UniProt P10721); PDGFRB (human) (UniProt P09619); AKT1 (human) (UniProt P31749); AKT3 (human) (UniProt Q9Y243); SLK (human) (UniProt Q9H2G2); CSF1R (human) (UniProt P07333); HIPK4 (human) (UniProt Q8NE63); MKNK2 (human) (UniProt Q9HBH9); PRKX (human) (UniProt P51817).
Another experiment addresses EPHB2 (human) (UniProt P29323). Kind of experiment: radiometric filter-binding kinase assay.
The next experiment has as its target EPHB4 (human) (UniProt P54760). The experiment can be described thus: radiometric filter-binding kinase assay.
Another experiment deals with ERBB4 (human) (UniProt Q15303). Kind of experiment: radiometric filter-binding kinase assay.
Another experiment addresses FLT1 (human) (UniProt P17948). Kind of experiment: radiometric filter-binding kinase assay.
The next experiment deals with GSK3B (human) (UniProt P49841). The experiment can be described thus: radiometric filter-binding kinase assay.
The next experiment concerns the target MAP3K7 (human) (UniProt O43318). The experiment can be described thus: radiometric filter-binding kinase assay.
The next experiment has as its target MAP3K9 (human) (UniProt P80192). The experiment can be described thus: radiometric filter-binding kinase assay.
The target of the next experiment is MAPK10 (human) (UniProt P53779). Kind of experiment: radiometric filter-binding kinase assay.
For the next experiment, the target named is MAPK8 (human) (UniProt P45983). Kind of experiment: radiometric filter-binding kinase assay.
The next experiment addresses MAPK9 (human) (UniProt P45984). Kind of experiment: radiometric filter-binding kinase assay.
The next experiment concerns the target RIPK2 (human) (UniProt O43353). Kind of experiment: radiometric filter-binding kinase assay.
The target in another experiment is CDC42BPA (human) (UniProt Q5VT25). Kind of experiment: KINOMEscan competition binding.
The next experiment has as its target MYLK3 (human) (UniProt Q32MK0). The experiment can be described thus: KINOMEscan competition binding.
The target in the next experiment is PLK2 (human) (UniProt Q9NYY3). The experiment can be described thus: KINOMEscan competition binding.
The next experiment addresses PRKAA1 (human) (UniProt Q13131). Kind of experiment: KINOMEscan competition binding.
The target in experiment [1] is AKT2 (human), P31751 [S474D]. The experiment can be described thus: radiometric filter-binding kinase assay.
A further experiment deals with CaMK1 (human) (UniProt Q14012). The experiment can be described thus: radiometric filter-binding kinase assay.
The target in a further experiment is CLK2 (human) (UniProt P49760). Kind of experiment: radiometric filter-binding kinase assay.
The next experiment deals with CSNK2A1 (human) (UniProt P68400). Kind of experiment: radiometric filter-binding kinase assay.
Another experiment addresses GCK (human) (UniProt Q12851). The experiment can be described thus: radiometric filter-binding kinase assay.
In experiment [2] the target is HIPK1 (human) (UniProt Q86Z02). The experiment can be described thus: radiometric filter-binding kinase assay.
Experiment [3] concerns the target IRAK1 (human) (UniProt P51617). The experiment can be described thus: radiometric filter-binding kinase assay.
A further experiment deals with JAK2 JH1 JH2 (human) (UniProt O60674). Kind of experiment: radiometric filter-binding kinase assay.
A further experiment deals with MAPK15 (human) (UniProt Q8TD08). Kind of experiment: radiometric filter-binding kinase assay.
The next experiment has as its target NUAK1 (human) (UniProt O60285). The experiment can be described thus: radiometric filter-binding kinase assay.
Experiment [4] has as its target HIPK1 (human) (UniProt Q86Z02).
Experiment [5] has as its target IRAK1 (human) (UniProt P51617).
The next experiment concerns the target YES1 (human) (UniProt P07947). The experiment can be described thus: radiometric filter-binding kinase assay.

Chain of MYLK3 (human) (Q32MK0 whole entry, looked up): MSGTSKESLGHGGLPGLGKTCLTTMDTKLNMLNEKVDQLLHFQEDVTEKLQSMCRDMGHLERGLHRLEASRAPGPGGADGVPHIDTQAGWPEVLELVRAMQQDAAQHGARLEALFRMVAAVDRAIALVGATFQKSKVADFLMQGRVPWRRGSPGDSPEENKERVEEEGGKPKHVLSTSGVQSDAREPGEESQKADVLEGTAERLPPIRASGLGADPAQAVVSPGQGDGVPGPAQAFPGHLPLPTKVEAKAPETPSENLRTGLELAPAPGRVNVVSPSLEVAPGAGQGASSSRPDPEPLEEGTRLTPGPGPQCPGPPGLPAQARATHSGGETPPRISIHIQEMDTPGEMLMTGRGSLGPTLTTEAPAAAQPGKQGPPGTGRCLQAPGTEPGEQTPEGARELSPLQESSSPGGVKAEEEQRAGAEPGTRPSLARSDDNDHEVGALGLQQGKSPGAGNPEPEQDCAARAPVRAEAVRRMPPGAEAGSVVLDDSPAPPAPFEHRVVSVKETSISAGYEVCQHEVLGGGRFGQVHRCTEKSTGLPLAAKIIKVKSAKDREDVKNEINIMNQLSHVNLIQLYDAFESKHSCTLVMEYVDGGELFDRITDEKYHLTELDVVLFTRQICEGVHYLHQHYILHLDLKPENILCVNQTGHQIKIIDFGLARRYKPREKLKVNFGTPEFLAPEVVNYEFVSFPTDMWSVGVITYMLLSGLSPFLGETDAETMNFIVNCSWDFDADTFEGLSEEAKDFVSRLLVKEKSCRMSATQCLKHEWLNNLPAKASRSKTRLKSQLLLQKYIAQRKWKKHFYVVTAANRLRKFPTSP
Chain of MAP3K7 (human) (O43318 whole entry, looked up): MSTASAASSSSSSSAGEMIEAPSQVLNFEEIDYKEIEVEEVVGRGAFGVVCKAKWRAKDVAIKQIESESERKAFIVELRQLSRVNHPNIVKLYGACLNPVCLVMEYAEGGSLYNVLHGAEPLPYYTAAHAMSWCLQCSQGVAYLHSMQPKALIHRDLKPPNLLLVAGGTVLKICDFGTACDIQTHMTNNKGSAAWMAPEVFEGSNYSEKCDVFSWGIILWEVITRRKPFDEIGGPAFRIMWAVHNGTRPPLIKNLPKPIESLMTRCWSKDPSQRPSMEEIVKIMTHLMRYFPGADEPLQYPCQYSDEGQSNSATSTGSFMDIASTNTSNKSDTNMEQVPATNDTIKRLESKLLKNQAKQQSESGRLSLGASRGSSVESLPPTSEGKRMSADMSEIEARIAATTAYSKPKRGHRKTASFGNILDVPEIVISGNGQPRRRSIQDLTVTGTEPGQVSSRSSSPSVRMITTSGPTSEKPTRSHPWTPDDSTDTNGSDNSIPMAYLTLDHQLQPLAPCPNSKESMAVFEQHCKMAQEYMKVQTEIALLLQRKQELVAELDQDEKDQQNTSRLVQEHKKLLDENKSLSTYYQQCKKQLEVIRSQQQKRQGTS
Chain of KIT (human) (P10721 whole entry, looked up): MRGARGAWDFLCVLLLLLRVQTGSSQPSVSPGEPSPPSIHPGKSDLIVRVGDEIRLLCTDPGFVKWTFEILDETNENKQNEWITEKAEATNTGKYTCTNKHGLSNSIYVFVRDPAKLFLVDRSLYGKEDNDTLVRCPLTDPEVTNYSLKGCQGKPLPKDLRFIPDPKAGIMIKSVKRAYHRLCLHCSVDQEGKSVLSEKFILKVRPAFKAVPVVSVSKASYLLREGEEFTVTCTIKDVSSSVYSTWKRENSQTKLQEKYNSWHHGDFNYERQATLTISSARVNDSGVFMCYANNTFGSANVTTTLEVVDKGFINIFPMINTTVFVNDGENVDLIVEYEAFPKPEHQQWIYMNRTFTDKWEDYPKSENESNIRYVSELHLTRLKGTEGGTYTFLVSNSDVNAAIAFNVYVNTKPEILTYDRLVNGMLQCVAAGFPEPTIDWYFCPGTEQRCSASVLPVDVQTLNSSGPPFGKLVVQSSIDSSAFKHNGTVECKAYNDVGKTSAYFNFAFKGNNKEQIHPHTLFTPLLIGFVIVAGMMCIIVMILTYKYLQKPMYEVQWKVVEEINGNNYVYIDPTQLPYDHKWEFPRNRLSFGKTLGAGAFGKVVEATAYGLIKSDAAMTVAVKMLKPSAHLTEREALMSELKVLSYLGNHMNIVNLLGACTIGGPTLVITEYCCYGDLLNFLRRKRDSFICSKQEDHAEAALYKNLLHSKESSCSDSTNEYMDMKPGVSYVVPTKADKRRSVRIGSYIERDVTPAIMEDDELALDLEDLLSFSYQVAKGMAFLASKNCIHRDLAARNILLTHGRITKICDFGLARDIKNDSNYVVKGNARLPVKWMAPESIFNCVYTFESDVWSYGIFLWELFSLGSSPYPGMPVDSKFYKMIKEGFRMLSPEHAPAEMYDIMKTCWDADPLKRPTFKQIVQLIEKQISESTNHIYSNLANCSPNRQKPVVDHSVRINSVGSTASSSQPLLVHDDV
Chain of MAPK8 (human) (P45983 whole entry, looked up): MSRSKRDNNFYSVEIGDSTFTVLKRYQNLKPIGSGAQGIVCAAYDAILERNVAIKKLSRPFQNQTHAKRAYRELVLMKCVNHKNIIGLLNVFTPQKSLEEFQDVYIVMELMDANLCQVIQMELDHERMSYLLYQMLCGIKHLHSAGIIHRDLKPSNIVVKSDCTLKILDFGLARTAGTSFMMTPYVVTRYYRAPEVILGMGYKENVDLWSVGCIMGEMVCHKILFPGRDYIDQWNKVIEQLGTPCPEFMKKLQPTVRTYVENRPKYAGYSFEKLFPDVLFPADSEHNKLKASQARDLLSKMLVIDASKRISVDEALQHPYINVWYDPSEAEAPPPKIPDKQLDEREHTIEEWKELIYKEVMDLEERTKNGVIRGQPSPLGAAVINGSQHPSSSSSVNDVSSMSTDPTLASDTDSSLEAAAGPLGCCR
Chain of PRKAA1 (human) (Q13131 whole entry, looked up): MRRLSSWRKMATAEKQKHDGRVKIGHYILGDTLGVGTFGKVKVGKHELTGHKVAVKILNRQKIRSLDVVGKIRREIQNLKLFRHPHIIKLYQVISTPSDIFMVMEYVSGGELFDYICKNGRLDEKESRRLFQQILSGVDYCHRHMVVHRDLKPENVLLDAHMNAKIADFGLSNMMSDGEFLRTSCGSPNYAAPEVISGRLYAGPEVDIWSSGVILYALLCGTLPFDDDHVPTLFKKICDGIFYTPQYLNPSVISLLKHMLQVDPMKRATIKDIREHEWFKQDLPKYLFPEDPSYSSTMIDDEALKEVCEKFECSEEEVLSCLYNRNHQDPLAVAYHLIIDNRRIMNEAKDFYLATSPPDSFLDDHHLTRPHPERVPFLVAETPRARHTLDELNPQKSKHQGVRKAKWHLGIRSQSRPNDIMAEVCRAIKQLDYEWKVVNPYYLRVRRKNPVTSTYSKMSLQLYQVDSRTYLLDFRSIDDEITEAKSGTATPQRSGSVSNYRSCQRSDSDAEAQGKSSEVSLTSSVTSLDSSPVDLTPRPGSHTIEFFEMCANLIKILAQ
Chain of PLK2 (human) (Q9NYY3 whole entry, looked up): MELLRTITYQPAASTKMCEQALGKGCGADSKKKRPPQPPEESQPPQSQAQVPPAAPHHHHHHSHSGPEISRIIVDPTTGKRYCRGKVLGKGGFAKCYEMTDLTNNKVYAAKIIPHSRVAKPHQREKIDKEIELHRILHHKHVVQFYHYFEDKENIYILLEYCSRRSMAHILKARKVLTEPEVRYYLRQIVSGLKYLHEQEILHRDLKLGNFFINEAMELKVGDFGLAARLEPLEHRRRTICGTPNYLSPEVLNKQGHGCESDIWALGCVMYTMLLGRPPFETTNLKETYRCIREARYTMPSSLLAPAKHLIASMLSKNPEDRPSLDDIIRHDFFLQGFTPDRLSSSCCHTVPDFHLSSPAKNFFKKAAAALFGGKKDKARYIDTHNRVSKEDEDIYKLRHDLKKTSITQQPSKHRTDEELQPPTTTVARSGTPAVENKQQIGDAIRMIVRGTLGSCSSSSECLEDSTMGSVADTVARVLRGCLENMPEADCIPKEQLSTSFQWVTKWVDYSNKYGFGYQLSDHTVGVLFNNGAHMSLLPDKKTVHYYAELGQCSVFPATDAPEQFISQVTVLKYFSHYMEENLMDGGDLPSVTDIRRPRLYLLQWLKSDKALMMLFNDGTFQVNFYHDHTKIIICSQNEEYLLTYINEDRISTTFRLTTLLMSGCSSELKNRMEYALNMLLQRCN
Chain of GSK3B (human) (P49841 whole entry, looked up): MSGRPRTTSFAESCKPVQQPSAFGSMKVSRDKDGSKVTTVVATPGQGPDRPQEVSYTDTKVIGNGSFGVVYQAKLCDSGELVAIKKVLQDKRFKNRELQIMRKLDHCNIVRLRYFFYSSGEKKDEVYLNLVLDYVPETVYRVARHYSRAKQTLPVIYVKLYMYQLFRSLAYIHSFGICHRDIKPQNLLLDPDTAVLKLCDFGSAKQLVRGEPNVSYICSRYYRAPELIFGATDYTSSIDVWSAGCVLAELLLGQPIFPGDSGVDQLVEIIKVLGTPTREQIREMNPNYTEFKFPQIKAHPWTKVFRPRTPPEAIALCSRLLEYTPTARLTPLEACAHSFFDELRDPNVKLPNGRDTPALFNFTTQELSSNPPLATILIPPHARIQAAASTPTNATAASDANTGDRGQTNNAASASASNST
Chain of MAPK10 (human) (P53779 whole entry, looked up): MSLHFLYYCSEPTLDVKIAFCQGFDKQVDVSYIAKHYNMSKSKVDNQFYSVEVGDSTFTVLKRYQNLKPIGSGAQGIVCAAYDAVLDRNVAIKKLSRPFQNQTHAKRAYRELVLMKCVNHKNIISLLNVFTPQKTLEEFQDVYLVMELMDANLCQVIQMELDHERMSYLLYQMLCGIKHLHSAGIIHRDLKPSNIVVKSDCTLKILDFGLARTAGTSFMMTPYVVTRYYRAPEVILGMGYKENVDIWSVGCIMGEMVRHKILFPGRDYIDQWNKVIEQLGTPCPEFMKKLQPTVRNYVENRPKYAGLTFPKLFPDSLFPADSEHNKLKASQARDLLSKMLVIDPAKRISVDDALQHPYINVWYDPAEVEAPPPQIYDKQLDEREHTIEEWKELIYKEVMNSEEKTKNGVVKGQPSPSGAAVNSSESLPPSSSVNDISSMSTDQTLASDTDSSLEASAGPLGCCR

For the compound `CN(C)C/C=C/C(=O)Nc1cccc(C(=O)Nc2ccc(Nc3nccc(-c4c(-c5ccccc5)nn5ccccc45)n3)cc2)c1`, the half-maximal inhibitory concentration (IC50) at EPHB2 (human) came out at 138 nM; on EPHB4 (human) it was 121 nM; at ERBB4 (human), 28.9 nM; at FLT1 (human) it was 18 nM; at GSK3B (human), 32 nM; on MAP3K7 (human) it was 351 nM. For the same compound, the IC50 on MAP3K9 (human) was 45 nM; on MAPK10 (human) it was 8.4 nM; on MAPK8 (human), 39 nM; at MAPK9 (human) it was 23 nM; on RIPK2 (human) it was 42 nM; at CSNK1E (human), 82.9 nM. Further, the IC50 was 161 nM at CSNK1G2 (human), 56.1 nM against DDR1 (human), 1320 nM at KIT (human) and 1030 nM against PDGFRB (human). In addition, the kinase still bound, per cent of control was found to be 13% at CDC42BPA (human) (compound 1.0 µM), 91% at MYLK3 (human) (compound 1.0 µM), 81% at PLK2 (human) (compound 1.0 µM) and 100% on PRKAA1 (human) (compound 1.0 µM).
As to `CN(C)C/C=C/C(=O)Nc1cccc(C(=O)Nc2ccc(Nc3nccc(/C(C#N)=C4\Nc5ccccc5S4)n3)cc2)c1`, the IC50 in experiment [1] was 970 nM; at CaMK1 (human), 900 nM; at FLT1 (human), 134 nM; on GSK3B (human), 84 nM; on MAP3K7 (human), 866 nM; at MAP3K9 (human) it was 104 nM. Also, the IC50 was 354 nM at MAPK10 (human); 327 nM on MAPK8 (human); 490 nM at MAPK9 (human); above 370 nM against AKT1 (human); above 370 nM against AKT3 (human); 884 nM against SLK (human). Further, the kinase still bound, per cent of control on CDC42BPA (human) (compound 1.0 µM) came out at 98%; at MYLK3 (human) (compound 1.0 µM), 100%; at PLK2 (human) (compound 1.0 µM) it was 65%; on PRKAA1 (human) (compound 1.0 µM), 100%.
On to `CN(C)C/C=C/C(=O)Nc1cccc(C(=O)Nc2ccc(Nc3nccc(-c4cccnc4)n3)cc2)c1`, for which the IC50 came out at 299 nM on CLK2 (human); 506 nM on CSNK2A1 (human); 20500 nM at GCK (human); 933 nM at GSK3B (human); 7610 nM at HIPK1 (human) [2]; 175 nM on IRAK1 (human) [3]. For the same compound, the IC50 at JAK2 JH1 JH2 (human) was 2510 nM; on MAP3K7 (human), 833 nM; on MAPK15 (human), 183 nM; on MAPK8 (human) it was 41 nM; at NUAK1 (human), 144 nM; on RIPK2 (human), 729 nM. The IC50 is 5010 nM against HIPK1 (human) [4], 14.1 nM against IRAK1 (human) [5] and 2410 nM against KIT (human). For the same compound, the kinase still bound, per cent of control is 100% at CDC42BPA (human) (compound 1.0 µM), 85% at MYLK3 (human) (compound 1.0 µM), 74% at PLK2 (human) (compound 1.0 µM) and 92% on PRKAA1 (human) (compound 1.0 µM).
On to `Cc1cc(NC(=O)c2cccc(NC(=O)/C=C/CN(C)C)c2)ccc1Nc1nccc(-c2cccnc2)n1`, for which the IC50 was 7720 nM on MAP3K7 (human); 1280 nM at YES1 (human); 287 nM against CSF1R (human); 8970 nM at HIPK4 (human); above 10000 nM at KIT (human); 238 nM against MKNK2 (human). Moreover, the IC50 against PDGFRB (human) is above 10000 nM; at PRKX (human), 7500 nM. The kinase still bound, per cent of control was found to be 100% on CDC42BPA (human) (compound 1.0 µM), 100% at MYLK3 (human) (compound 1.0 µM), 79% at PLK2 (human) (compound 1.0 µM) and 100% on PRKAA1 (human) (compound 1.0 µM).
In the case of `Cc1ccc(NC(=O)c2ccc(NC(=O)/C=C/CN(C)C)cc2)cc1Nc1nccc(-c2cccnc2)n1`, the kinase still bound, per cent of control turned out to be 83% at CDC42BPA (human) (compound 10.0 µM), 97% on MYLK3 (human) (compound 10.0 µM), 34% on PLK2 (human) (compound 10.0 µM) and 73% on PRKAA1 (human) (compound 10.0 µM).
